According to paper PMC4604124, “In Vitro Characterization of the Pharmacological Properties of the Anti-Cancer Chelator, Bp4eT, and Its Phase I Metabolites” (PLoS ONE, 2015):
Where “and” joins values, the source holds several entries; their conditions need not be identical. Equal entries are not always repeated.

Experiments:
[1] = tested on: labile iron pool of MCF-7 cells; assay: Calcein-AM assay, access to the labile iron pool; assay type: cell-based, human; set-up: Calcein fluorescence: unit not given here; conditions: 10 μM
Procedure: These experiments were performed according to Glickstein et al. with slight modifications. The MCF-7 cells were seeded in 96-well plates (10,000 cells/well) and allowed to adhere for 24 h/37°C. Cells were loaded with iron using the cellular iron donor, ferric ammonium citrate (530 μg/mL), 24 h prior to the experiment, and then washed. To prevent potential interference, especially with regard to various trace elements, the medium was replaced with ADS buffer (prepared using Millipore water supplemented with 116 mM NaCl, 5.3 mM KCl, 1 mM CaCl2, 1.2 mM MgSO4, 1.13 mM NaH2PO4, 5 mM D-glucose, and 20 mM HEPES, pH 7.4). Cells were then loaded with 2 μM of the cell-permeable calcein green acetoxymethyl ester (calcein-AM; Molecular Probes, Oregon, USA) for 30 min/37°C and washed. Cellular esterases cleave the acetoxymethyl groups to form the cell membrane-impermeable compound, calcein green. The fluorescence of calcein green is quenched upon binding iron. The intracellular fluorescence (λex = 488 nm; λem = 530 nm) of calcein green was then followed as a function of time (10 min after the addition of 10 μM Bp4eT or its metabolites) at 37°C using the Tecan Infinite 200M plate reader. The iron chelation efficacy of the metabolites in cells was expressed as a percentage of the efficacy of the parent chelator, Bp4eT (100%).

[2] = Ascorbate oxidation assay (redox activity of iron complexes); assay type: biochemical;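 as to %Fe 30min (ascorbate oxidation, Fe 100%), průměr: IBE 3 means excess free chelator over iron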;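 as to %Fe 30min (ascorbate oxidation, Fe 100%): IBE 3 means excess free chelator over iron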;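 as to %Fe 30min (ascorbate oxidation, Fe = 100%), průměr (mean): IBE 1 means iron-binding equivalents giving fully coordinated iron-chelator complexes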;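 as to %Fe 30min (ascorbate oxidation, Fe = 100%), single replicates: IBE 1 means iron-binding equivalents giving fully coordinated iron-chelator complexes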;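 as to %Fe 30min: ascorbate oxidation as % of the Fe control (Fe 100%): IBE 0.1 means iron-binding equivalents with iron in excess over chelator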;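 as to Change of absorbance, odečet 0 (time 0 subtracted), čas 10, průměr: IBE 3 means excess free chelator over 10 µM FeCl3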;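 as to Change of absorbance, odečet 0 (time 0 subtracted), čas 10: IBE 3 means excess free chelator over 10 µM FeCl3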;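 as to Change of absorbance, odečet 0 (time 0 subtracted), čas 20, průměr: 100 µM ascorbate with 10 µM FeCl3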;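 as to Change of absorbance, odečet 0 (time 0 subtracted), čas 20: 100 µM ascorbate with 10 µM FeCl3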;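 as to Change of absorbance, odečet 0 (time 0 subtracted), čas 30, průměr: 100 µM ascorbate with 10 µM FeCl3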;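 as to Change of absorbance, odečet 0 (time 0 subtracted), čas 30: 100 µM ascorbate with 10 µM FeCl3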;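 as to odečet 0 (reading minus time 0 reading) at čas 20, single replicates: IBE 1 means fully coordinated iron chelator complexes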;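 as to odečet 0 (reading minus time 0 reading) at čas 30, průměr (mean): IBE 1 means fully coordinated iron chelator complexes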;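 as to odečet 0 (reading minus time 0 reading) at čas 30, single replicates: IBE 1 means fully coordinated iron chelator complexes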;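 as to raw reading at čas 20 (time 20), průměr (mean): IBE 1 means fully coordinated iron chelator complexes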;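 as to raw reading at čas 20 (time 20), single replicates: IBE 1 means fully coordinated iron chelator complexes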;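 as to raw reading at čas 30 (time 30), průměr (mean): IBE 1 means fully coordinated iron chelator complexes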;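 as to raw reading at čas 30 (time 30), single replicates: IBE 1 means fully coordinated iron chelator complexes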
[3] = tested on: HCT116 human colorectal carcinoma cells; assay: MTT cytotoxicity assay, HCT116 cells; assay type: cell-based; conditions: for IC50: MTT
Procedure: For cytotoxicity experiments, cancer cells were seeded at a density of 5,000 (MCF-7), 10,000 (HL-60) or 2,000 cells/well (HCT116 and A549) in 96-well plates (TPP) for 24 h/37°C prior to the addition of examined agents. The non-cancerous cells, 3T3 and H9c2 cells, were cultured for 24 h/37°C in 96-well plates at a density of 10,000 cells/well, the medium was then changed to serum- and pyruvate-free DMEM (Sigma-Aldrich) and incubated with the cells for another 24 h/37°C. The cytotoxic effects of Bp4eT and its metabolites were studied at different concentrations after a 72 h/37°C incubation. In order to aid the dissolution of the lipophilic ligands, 0.1% dimethyl sulfoxide (v/v) (DMSO; Sigma-Aldrich) was present in the culture medium of all groups. At this concentration, DMSO had no effect on cellular proliferation or viability.
The viability of cells were determined using an MTT assay (Sigma-Aldrich) according to previously established methods. The optical density of soluble MTT was measured at λ = 570 nm, subtracting the λ = 690 nm background using a Tecan Infinite 200M plate reader (Tecan Group, Männedorf, Switzerland). The viability or proliferation of experimental groups was expressed as a percentage of the untreated controls (100%).
SigmaStat for Windows 3.5 (Systat Software, San Jose, CA, USA) statistical software package was utilized to analyze results. The data are expressed as the mean ± SD of a given number of experiments. Statistical significance was determined using a one-way ANOVA with a Bonferroni post-hoc test or Student’s t-test. The results were considered to be statistically significant when p < 0.05. The IC50 values were calculated using CalcuSyn 2.0 software (Biosoft, Cambridge, UK). Cell cycle analysis was evaluated using MultiCycle AV Software (Phoenix Flow Systems, San Diego, CA, USA).

[4] = sheet IBE 1, time 10, replicates
[5] = sheet IBE 1, time 20, replicates
[6] = sheet IBE 1, time 30, replicates

SMILES: CCNC(=S)NN=C(c1ccccc1)c1ccccn1 [Bp4eT, 2-benzoylpyridine 4-ethyl-3-thiosemicarbazone]
- Calcein fluorescence ([1]; 30 sec, mean (průměr)): 27.822
- Calcein fluorescence ([1]; 60 sec, mean (průměr)): 40.360
- Calcein fluorescence ([1]; 90 sec, mean (průměr)): 65.393
- Calcein fluorescence ([1]; 120 sec, mean (průměr)): 66.572
- Calcein fluorescence ([1]; 300 sec, mean (průměr)): 146.135
- Calcein fluorescence ([1]; 300 sec, single experiments): 168.950 and 158.308 and 180.958 and 116.900 and 150.183 and 101.508
- Calcein fluorescence ([1]; 600 sec, mean (průměr)): 220.551
- Calcein fluorescence ([1]; 600 sec, single experiments): 239.975 and 219.283 and 288.833 and 220.450 and 195.583 and 159.183
- Chelation efficacy: fluorescence of free calcein at t = 600 s as percentage of Bp4eT ([1]; MCF-7, mean of 6 experiments): 100%
- Fluorescence of free calcein at 600 s as percentage of Bp4eT ([1]; MCF-7, single experiments): 108.807% and 99.4251% and 130.96% and 99.954% and 88.6793% and 72.1752%
- %Fe 30min: ascorbate oxidation as % of the Fe control (Fe 100%) ([2]; IBE 0.1, 30 min, mean (průměr)): 114.3%
- Change of absorbance after subtraction of time 0 (odečet 0) ([2]; IBE 0.1, time 10, mean (průměr)): -0.04348
- Change of absorbance after subtraction of time 0 (odečet 0) ([2]; IBE 0.1, time 20, mean (průměr)): -0.0765
- Change of absorbance after subtraction of time 0 (odečet 0) ([2]; IBE 0.1, time 30, mean (průměr)): -0.108
- Absorbance (ascorbate, λ = 265 nm) ([2]; IBE 0.1, čas 0 (time 0), mean (průměr)): 0.839
- Absorbance (ascorbate, λ = 265 nm) ([2]; IBE 0.1, čas 10 (time 10), mean (průměr)): 0.7956
- Absorbance (ascorbate, λ = 265 nm) ([2]; IBE 0.1, čas 20 (time 20), mean (průměr)): 0.7625
- Absorbance (ascorbate, λ = 265 nm) ([2]; IBE 0.1, čas 30 (time 30), mean (průměr)): 0.731
- Ascorbate oxidation, % of the control ([2]; IBE 1): significant (p < 0.001) increase
- Ascorbate oxidation, % of the control ([2]; IBE 3): significant (p < 0.001) increase
- %Fe 30min (ascorbate oxidation, Fe = 100%), průměr (mean) ([2]; sheet IBE 1, 30min, Fe 100%, mean): 274.4%
- %Fe 30min (ascorbate oxidation, Fe = 100%), single replicates ([2]; sheet IBE 1, 30min, Fe 100%, replicates): 326.6% and 305.9% and 307.7% and 264.1% and 243.3% and 218.6% and 291.9% and 257% and 254.6%
- raw reading at čas 0 (time 0), průměr (mean) ([2]; sheet IBE 1, time 0, mean of 9 readings): 0.8081
- raw reading at čas 0 (time 0), single replicates ([2]; sheet IBE 1, time 0, replicates of 2014-03-24 (two runs) and 2014-03-25): 0.8198 and 0.8003 and 0.8337 and 0.8268 and 0.8308 and 0.7872 and 0.7839 and 0.7637 and 0.8272
- odečet 0 (reading minus time 0 reading) at čas 10, průměr (mean) ([2]; sheet IBE 1, time 10, mean): -0.1075
- raw reading at čas 10 (time 10), průměr (mean) ([2]; sheet IBE 1, time 10, mean of 9 readings): 0.7006
- odečet 0 (reading minus time 0 reading) at čas 10, single replicates [2, 4]: -0.1527 and -0.1456 and -0.1532 and -0.1025 and -0.07863 and -0.05463 and -0.1235 and -0.07821 and -0.07861
- raw reading at čas 10 (time 10), single replicates [2, 4]: 0.681 and 0.6812 and 0.6776 and 0.6847 and 0.7053 and 0.7091 and 0.7037 and 0.7416 and 0.7217
- odečet 0 (reading minus time 0 reading) at čas 20, průměr (mean) ([2]; sheet IBE 1, time 20, mean): -0.1811
- raw reading at čas 20 (time 20), průměr (mean) ([2]; sheet IBE 1, time 20, mean of 9 readings): 0.627
- odečet 0 (reading minus time 0 reading) at čas 20, single replicates [2, 5]: -0.2337 and -0.2156 and -0.2203 and -0.1671 and -0.1458 and -0.1256 and -0.1987 and -0.1601 and -0.163
- raw reading at čas 20 (time 20), single replicates [2, 5]: 0.6 and 0.6112 and 0.6105 and 0.6201 and 0.6381 (2×) and 0.6284 and 0.6597 and 0.6373
- odečet 0 (reading minus time 0 reading) at čas 30, průměr (mean) ([2]; sheet IBE 1, time 30, mean): -0.2442
- raw reading at čas 30 (time 30), průměr (mean) ([2]; sheet IBE 1, time 30, mean of 9 readings): 0.5639
- odečet 0 (reading minus time 0 reading) at čas 30, single replicates [2, 6]: -0.2822 and -0.2643 and -0.2658 and -0.2282 and -0.2102 and -0.1888 and -0.2754 and -0.2425 and -0.2402
- raw reading at čas 30 (time 30), single replicates [2, 6]: 0.5515 and 0.5624 and 0.5649 and 0.5591 and 0.5737 and 0.5749 and 0.5518 and 0.5772 and 0.56
- %Fe 30min (ascorbate oxidation, Fe 100%), průměr ([2]; sheet IBE 3, 30min, Fe alone = 100%, mean (průměr) of the 9 replicates): 278.6%
- %Fe 30min (ascorbate oxidation, Fe 100%) ([2]; sheet IBE 3, 30min, Fe alone = 100%, single replicates): 323.8% and 304.1% and 296.1% and 279.4% and 257.4% and 253.6% and 291.2% and 261% and 240.7%
- Change of absorbance, odečet 0 (time 0 subtracted), čas 10, průměr ([2]; sheet IBE 3, time 10 minus time 0, mean (průměr)): -0.09469
- Change of absorbance, odečet 0 (time 0 subtracted), čas 10 ([2]; sheet IBE 3, time 10 minus time 0, single replicates): -0.1148 and -0.1115 and -0.1009 and -0.09722 and -0.09232 and -0.09642 and -0.1047 and -0.06955 and -0.06465
- Change of absorbance, odečet 0 (time 0 subtracted), čas 20, průměr ([2]; sheet IBE 3, time 20 minus time 0, mean (průměr)): -0.1775
- Change of absorbance, odečet 0 (time 0 subtracted), čas 20 ([2]; sheet IBE 3, time 20 minus time 0, single replicates): -0.2173 and -0.2064 and -0.1913 and -0.1735 and -0.1668 and -0.1578 and -0.1895 and -0.1498 and -0.1449
- Change of absorbance, odečet 0 (time 0 subtracted), čas 30, průměr ([2]; sheet IBE 3, time 30 minus time 0, mean (průměr)): -0.2575
- Change of absorbance, odečet 0 (time 0 subtracted), čas 30 ([2]; sheet IBE 3, time 30 minus time 0, single replicates): -0.3006 and -0.2823 and -0.2749 and -0.2593 and -0.2389 (2×) and -0.2354 and -0.2666 and -0.2203
- Therapeutic index, IC50 non-cancerous cells / IC50 neoplastic cells ([3]; 3T3/HCT116): 163.6
- Therapeutic index, IC50 non-cancerous cells / IC50 neoplastic cells ([3]; H9c2/HCT116): 65.5
- MTT, relative to control (0 = 100) ([3]; HCT116, 2 000 b/j, 0.1 nM, průměr (mean)): 92.91
- MTT, relative to control (0 = 100) ([3]; HCT116, 2 000 b/j, 0.1 nM, single experiment (date)): 94.5188 and 92.721 and 92.454 and 82.0932 and 102.751
- MTT, relative to control (0 = 100) ([3]; HCT116, 2 000 b/j, 0.3 nM, průměr (mean)): 88.66
- MTT, relative to control (0 = 100) ([3]; HCT116, 2 000 b/j, 0.3 nM, single experiment (date)): 92.7269 and 86.3547 and 90.8174 and 78.0265 and 95.3944
- MTT, relative to control (0 = 100) ([3]; HCT116, 2 000 b/j, 1 nM, průměr (mean)): 85.74
- MTT, relative to control (0 = 100) ([3]; HCT116, 2 000 b/j, 1 nM, single experiment (date)): 90.3279 and 80.727 and 89.5958 and 78.1202 and 89.9198
- MTT, relative to control (0 = 100) ([3]; HCT116, 2 000 b/j, 3 nM, průměr (mean)): 82.64
- MTT, relative to control (0 = 100) ([3]; HCT116, 2 000 b/j, 3 nM, single experiment (date)): 85.5357 and 81.1307 and 88.4648 and 76.4907 and 81.5651
- MTT, relative to control (0 = 100) ([3]; HCT116, 2 000 b/j, 10 nM, průměr (mean)): 43.25
- MTT, relative to control (0 = 100) ([3]; HCT116, 2 000 b/j, 10 nM, single experiment (date)): 46.7731 and 45.9842 and 47.2591 and 32.9751
- MTT, relative to control (0 = 100) ([3]; HCT116, 2 000 b/j, 30 nM, průměr (mean)): 5.63
- MTT, relative to control (0 = 100) ([3]; HCT116, 2 000 b/j, 100 nM, průměr (mean)): 2.50
- IC50 ([3]; HCT116, 2 000 b/j, single experiment (date)): 7.8 nM and 8.77 nM and 5.93 nM
- IC50 ([3]; Homo sapiens, HCT-116, 72 h, HCT116, 72 h/37°C, mean ± SD, n ≥ 4): 8 ± 1 nM
- IC50 ([3]; Homo sapiens, HCT-116, HCT116, 2 000 b/j, průměr (mean)): 7.6 nM
- IC50 ([3]; Homo sapiens, HCT-116, HCT116, 2 000 b/j, single experiment (date)): 7.89 nM
